Literature values as cited in patent US20020051978A1, “Methods and compositions for the identification, assessment, prevention and therapy of human cancers” (priority 2000, published 2002).
Read-outs that look alike come from different tables or passages of the source.

System: 60 cancer cell lines (NCI 60 cancer cell line series)
Details: cited from earlier work

SMILES: NC(=O)NO [Hydroxyurea]
- -Log (GI50) (Breast BT-549 (CL5013)): 2.8
- -Log (GI50) (Breast HS-578T CL5006): 3.1
- -Log (GI50) (Breast MCF7(I) (CL5001)): 3.5
- -Log (GI50) (Breast MCF7/ADRr (CL5002)): 3.5
- -Log (GI50) (Breast MDA-MB-231 CL5005): 2.6
- -Log (GI50) (Breast MDA-MB-435 (CL5011)): 2.7
- -Log (GI50) (Breast MDA-N CL5012): 2.7
- -Log (GI50) (Breast T-47D (CL5014)): 2.8
- -Log (GI50) (CNS SF-268 CL12014): 3.3
- -Log (GI50) (CNS SF-295 CL12015): 3.5
- -Log (GI50) (CNS SF-539 CL12016): 3.5
- -Log (GI50) (CNS SNB-19 (CL12002)): 2.8
- -Log (GI50) (CNS SNB-75(I) CL12005): 3.1
- -Log (GI50) (CNS U251(I) CL12009): 3.3
- -Log (GI50) (Colon COLO-250 CL4010): 2.8
- -Log (GI50) (Colon HCC-2998 (CL4002)): 3.1
- -Log (GI50) (Colon HCT-15 CL4015): 3.1
- -Log (GI50) (Colon HCT-116 (CL4003)): 3.0
- -Log (GI50) (Colon HT29(I) CL4001): 3.3
- -Log (GI50) (Colon KM12 (CL4017)): 3.1
- -Log (GI50) (Colon SW-620 (CL4009)): 3.0
- -Log (GI50) (Leukemia CCRF-CEM(I) (CL7003)): 4.3
- -Log (GI50) (Leukemia HL-60(I) (CL7008)): 4.7
- -Log (GI50) (Leukemia K562(I) CL7005): 3.0
- -Log (GI50) (Leukemia MOLT-4 (CL7006)): 3.8
- -Log (GI50) (Leukemia RPMI-8226(I) (CL7010)): 3.6
- -Log (GI50) (Leukemia SR CL7019): 3.7
- -Log (GI50) (Melanoma LOX IMVI CL10001): 3.2
- -Log (GI50) (Melanoma M14 (CL10014)): 3.2
- -Log (GI50) (Melanoma MALME-3M CL10002): 2.9
- -Log (GI50) (Melanoma SK-MEL-2 (CL10005)): 2.8
- -Log (GI50) (Melanoma SK-MEL-5 (CL10007)): 3.2
- -Log (GI50) (Melanoma SK-MEL-28 (CL10008)): 2.7
- -Log (GI50) (Melanoma UACC-62 (CL10020)): 3.6
- -Log (GI50) (Melanoma UACC-257 (CL10021)): 2.8
- -Log (GI50) (NCSLC NCI-H522 CL1003): 3.1
- -Log (GI50) (NSCLC A549/ATCC (CL1004)): 3.3
- -Log (GI50) (NSCLC EKVX (CL1008)): 2.8
- -Log (GI50) (NSCLC HOP-62 (CL1026)): 3.0
- -Log (GI50) (NSCLC HOP-92 (CL1029)): 3.1
- -Log (GI50) (NSCLC NCI-H23(I) CL1001): 3.1
- -Log (GI50) (NSCLC NCI-H226 CL1013): 3.1
- -Log (GI50) (NSCLC NCI-H332M CL1017): 2.8
- -Log (GI50) (NSCLC NCI-H460 CL1021): 3.5
- -Log (GI50) (Ovarian IGROV1 CL6010): 3.0
- -Log (GI50) (Ovarian OVCAR-3 CL6001): 3.0
- -Log (GI50) (Ovarian OVCAR-4 CL6002): 2.8
- -Log (GI50) (Ovarian OVCAR-5 CL6003): 3.2
- -Log (GI50) (Ovarian OVCAR-8 CL6005): 3.3
- -Log (GI50) (Ovarian SK-OV-3 CL6011): 2.8
- -Log (GI50) (Prostate DU-145 CL11003): 3.1
- -Log (GI50) (Prostate PC-3(I) CL11001): 3.0
- -Log (GI50) (Renal 786-O CL9018): 3.5
- -Log (GI50) (Renal A498 CL9013): 3.2
- -Log (GI50) (Renal ACHN CL9023): 4.0
- -Log (GI50) (Renal CAKI-1 CL9015): 3.6
- -Log (GI50) (Renal RXF-393 CL9016): 3.2
- -Log (GI50) (Renal SN12C CL9008): 3.1
- -Log (GI50) (Renal TK10 CL9024): 2.7
- -Log (GI50) (Renal UO-31 CL9004): 3.3
